Reference: patent US20130072509A1, “PTEROSTILBENE AND STATIN COMBINATION FOR TREATMENT OF METABOLIC DISEASE, CARDIOVASCULAR DISEASE, AND INFLAMMATION” (ChromaDex Inc., priority 2011, published 2013)
Like-named read-outs stand apart in the source and are kept apart here.

Legend:
[1] = cited from earlier work; for bioavailability: in vivo
H4IIEC3 rat liver cells = settings: 100 μM; cited from earlier work
[2] = Human clinical trial in dyslipidemia patients: lipids and blood pressure; type: in vivo
Description: The following is a general study design for human clinical trial to assess efficacy of pterostilbene, in combination with a statin, to lower cholesterol and/or lower blood pressure, among other measured endpoints including markers for oxidative stress. The study type is interventional: a randomized, double-blind, placebo controlled study. Endpoint Classification: Safety/Efficacy Study.
The purpose of this study is to evaluate whether pterostilbene alone, or a combination of pterostilbene and a statin compound, will help control cholesterol and blood pressure, as well as improve markers for oxidative stress in patients with dyslipidemia meeting inclusion criteria. The investigators will assess the safety of pterostilbene in these patients. Further, 33% of all subjects, spread randomly across all study groups, will be undergoing concurrent statin therapy but still satisfy the inclusion criteria of a previous TC≧200 mg/dL, and/or a LDL-C≧100 mg/dL.
Sixty subjects, divided into three groups: 20 per study group. Ages eligible for study: 18 to 88 years, both genders. No healthy volunteers accepted. Inclusion criteria: patients ≧18 years of age with a previous TC≧200 mg/dL, and/or a LDL-C≧100 mg/dL on either no therapy or stable therapy. Any concomitant cholesterol medication must be at a stable dose for at least 2 months prior to baseline laboratory and not listed in the exclusion criteria. Exclusion criteria: patients with significant hepatic, renal or gastrointestinal tract disease, receiving thiazolidinediones or fibric acid derivatives, current overt cardiovascular disease, women of reproductive potential not receiving birth control, and pregnant/nursing women.
Evaluation Criteria for clinical measurement: 1. Primary outcome measures: lipid laboratory markers (i.e., change in baseline TC, LDL-C, triglycerides (TG), HDL-C, non-HDL-C); 2. Secondary outcome measures: blood pressure (i.e., change in baseline systolic blood pressure and/or diastolic blood pressure); basic metabolic panel; AST (aspartate aminotransferase); ALT (alanine aminotransferase); and/or oxidative stress markers (i.e., change in baseline urine-derived markers of stress (e.g., isoprostanes: iPF2-Alpha-III/creat; iPF2-Alpha-VI/creat; 2,3 Dinor-iPF2-Alpha-III/creat)).
Subjects will be divided into three groups or arms: (1) high dose pterostilbene, 125 mg twice daily by mouth for 6 to 8 weeks; (2) low dose pterostilbene, 50 mg twice daily by mouth for 6 to 8 weeks; (3) matching placebo taken twice daily by mouth for 6 to 8 weeks; either one hour before or two hours after a meal. Further, as stated above, 33% of all subjects, spread randomly across all study groups, will be undergoing concurrent statin therapy. […]

CYP1B1 = target: T1, CYP1B1 (Homo sapiens, UniProt Q16678); settings: human recombinant; cited from earlier work
T1 sequence (Q16678 1-543): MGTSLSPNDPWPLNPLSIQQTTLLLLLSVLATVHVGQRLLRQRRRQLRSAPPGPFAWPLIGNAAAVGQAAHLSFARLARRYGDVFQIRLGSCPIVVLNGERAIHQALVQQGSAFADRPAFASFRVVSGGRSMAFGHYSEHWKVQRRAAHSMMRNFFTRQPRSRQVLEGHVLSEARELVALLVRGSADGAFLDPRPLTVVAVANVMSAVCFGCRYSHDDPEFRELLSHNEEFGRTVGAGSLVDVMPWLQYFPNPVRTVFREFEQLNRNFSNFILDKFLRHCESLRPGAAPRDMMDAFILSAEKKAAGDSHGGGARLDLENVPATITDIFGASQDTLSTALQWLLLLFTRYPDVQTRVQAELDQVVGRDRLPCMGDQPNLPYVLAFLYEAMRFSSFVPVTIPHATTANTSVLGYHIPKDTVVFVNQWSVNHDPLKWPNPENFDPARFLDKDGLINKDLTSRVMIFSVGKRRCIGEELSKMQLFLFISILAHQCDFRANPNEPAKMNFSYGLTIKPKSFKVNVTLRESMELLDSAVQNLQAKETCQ

rat smooth muscle cells = settings: in vitro; cited from earlier work
[3] = mice, 28-day subacute; 160 pound human equivalent doses of approximately 125 mg/day, 1.25 g/day and 12.5 g/day; cited from earlier work
CYP1A1 = target: T2, CYP1A1 (Homo sapiens, UniProt P04798); settings: human recombinant; cited from earlier work
T2 sequence (P04798 1-512): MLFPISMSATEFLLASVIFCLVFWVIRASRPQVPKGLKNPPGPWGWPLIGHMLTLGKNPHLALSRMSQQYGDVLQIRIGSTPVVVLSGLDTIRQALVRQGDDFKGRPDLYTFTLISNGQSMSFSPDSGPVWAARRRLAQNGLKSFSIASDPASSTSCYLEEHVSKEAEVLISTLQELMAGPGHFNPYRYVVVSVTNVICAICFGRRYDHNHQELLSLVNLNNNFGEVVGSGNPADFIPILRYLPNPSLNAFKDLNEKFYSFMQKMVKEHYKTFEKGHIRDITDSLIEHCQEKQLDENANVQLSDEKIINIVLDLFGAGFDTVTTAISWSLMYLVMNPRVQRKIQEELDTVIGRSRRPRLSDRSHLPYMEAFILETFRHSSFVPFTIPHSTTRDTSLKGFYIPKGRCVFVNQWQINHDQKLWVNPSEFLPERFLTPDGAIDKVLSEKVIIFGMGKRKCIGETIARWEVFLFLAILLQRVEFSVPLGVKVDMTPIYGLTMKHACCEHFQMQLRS

PPAR-alpha = target: T3, PPAR-alpha (Rattus norvegicus, UniProt P37230); settings: cited from earlier work
T3 construct: endogenous in cells; host or cells: H4IIEC3 rat liver cells
T3 sequence (P37230 1-468): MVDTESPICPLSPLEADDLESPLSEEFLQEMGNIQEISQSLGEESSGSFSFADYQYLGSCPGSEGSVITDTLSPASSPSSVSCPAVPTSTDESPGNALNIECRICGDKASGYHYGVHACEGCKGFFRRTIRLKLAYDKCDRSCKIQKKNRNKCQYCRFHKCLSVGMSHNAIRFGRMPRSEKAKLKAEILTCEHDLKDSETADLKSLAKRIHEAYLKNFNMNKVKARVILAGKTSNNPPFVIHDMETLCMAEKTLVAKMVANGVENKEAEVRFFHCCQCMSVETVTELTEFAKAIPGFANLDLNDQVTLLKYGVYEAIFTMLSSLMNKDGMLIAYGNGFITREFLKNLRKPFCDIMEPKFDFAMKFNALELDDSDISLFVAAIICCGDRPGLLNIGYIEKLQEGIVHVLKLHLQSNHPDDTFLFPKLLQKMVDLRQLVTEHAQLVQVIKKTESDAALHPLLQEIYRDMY

[4] = after 8 weeks, oral twice daily, pterostilbene alone
[5] = 100 μM, H4IIEC3 rat liver cells

Row | SMILES | half life t1/2 in blood [1] [min] | bioavailability [1] | Toxicity to cells (H4IIEC3 rat liver cells) | change in LDL-C level [2, 4] | change in TC level [2, 4] | reduction in diastolic blood pressure ([2]; high dose (250 mg daily), including patients receiving a statin, p<0.001) [mmHg] | reduction in systolic blood pressure ([2]; high dose (250 mg daily), including patients receiving a statin, p<0.01) [mmHg] | CYP1B1 inhibition (CYP1B1) | proliferation of rat smooth muscle cells (rat smooth muscle cells) | local or systemic toxicity [3] | CYP1A1 inhibition (CYP1A1) | PPAR-alpha activation over the control (PPAR-alpha; [5]) [fold] | PPAR-alpha activation relative to 100 μM of ciprofibrate (PPAR-alpha; [5]) [fold] | PPAR-alpha activation over the control (PPAR-alpha; 300 μM, H4IIEC3 rat liver cells) [fold] | PPAR-alpha activation (in words) (PPAR-alpha; study of a group of similar stilbenes, in a manner similar to ciprofibrate)
1 | Oc1ccc(C=Cc2cc(O)cc(O)c2)cc1 [resveratrol, reference compound] | 10 to 14 | poor bioavailability | toxic to cells | – | – | – | – | – | – | – | – | – | – | – | –
2 | COc1cc(/C=C/c2ccc(O)cc2)cc(OC)c1 [pterostilbene, 3,5-dimethoxy-4′-hydroxy-trans-stilbene] | 74 to 105 | orally bioavailable | – | slight increases | slight increases | −7.3 | −7.8 | shown to inhibit | inhibit the proliferation | no local or systemic toxicity | shown to inhibit | 8 | ~2 | 14 | activated PPAR-alpha
